Patent US5759996A, “Peptides useful for altering αv β3 -mediated binding” (priority 1995, dated 1998)
Where a SMILES comes first, the peptide text is derived from it. Bridges are numbered along the chain shown (N, C = ends). [ ]: non-standard residue; d: D form. Tic = O=C(O)[C@@H]1Cc2ccccc2CN1; Pen = CC(C)(S)[C@H](N)C(=O)O; Mpa = O=C(O)CCS

What was measured:
[1] = parathyroid hormone-induced hypercalcemia in mice; type: in vivo; conditions: parathyroidectomized mice, 4 hr infusion, various doses
Description: Parathyroid hormone (PTH) activates osteoclasts, which are involved in bone resorption. Associated with the increased osteoclast activity is an increase in serum calcium. The PTH-induced hypercalcemia assay measures the level of serum calcium, which is an indication of bone resorption in a subject (Fischer et al., Endocrinology 132:1411-1413 (1993), which is incorporated herein by reference).
Swiss-Webster mice, which had been parathyroidectomized two weeks prior to beginning the assay, were obtained from Taconic Lab Animals and Services (Germantown N.Y.). Femoral vein catheters (PE-50 fused with PE10 polyethylene tubing; Becton Dickinson; Parsippany, N.J.) were installed in the mice, flushed and locked with heparinized saline (1:10), sutured to adjacent muscle and internalized within the inguinal space of the incision before closing the incision with wound clips. […]
The experiment was initiated by feeding the mice a calcium-deficient diet overnight, then injecting the mice the following morning with a bolus of 0.2 mg PTH/kg (hPTH 1-34; Bachem; Torrance Calif.), intravenously. […] Various doses of a peptide or vehicle were infused into an animal for 4 hr, then ionized serum calcium again was measured. […] Serum calcium measurements were expressed as the difference between the value 30 min before the PTH pulse and 4 hr after peptide infusion was started. […]

αv β3 integrin receptor = αv β3 integrin receptor (Homo sapiens, UniProt P05106+P06756); experiment: series of in vitro assays of Example II (potency and selectivity summary)
[2] = biological target: T1, purified human α5 β1 (FnR) (Homo sapiens, UniProt P05556+P08648); experiment: α5 β1 ELISA (competitive); type: binding
T1 construct: Fibronectin receptor (FnR) was purified from 100 mM octyl-glucopyranoside-extracted human placenta; from tissue; host or cells: human placenta
Method: Peptide binding to purified human α5 β1 (FnR) also was determined using a competitive ELISA. In these assays, Fn was immobilized to the wells and the binding of solubilized FnR in the presence of various concentrations of a peptide analogue was determined using a mouse monoclonal antibody to human β1 (clone P4C10; Gibco) and specific binding was visualized using a second antibody.
Microtiter wells were coated at RT by adding 100 μl of 2 μg/ml human Fn in TBS and incubating the plates overnight at 4° C. Following incubation, the plates were washed 3× with TBS/"TWEEN 20" (polyoxyethylenesorbitan monolaurate). RGD peptides were diluted in TBS containing 20 mM OG and 2 mM MnCl2 and 50 μl was added to wells at 10-fold serial dilutions. FnR was diluted in the same buffer and 50 μl was added to each well.
The plates were incubated for 3 hr at RT and washed with 300 μl TBS/"TWEEN 20" (polyoxyethylenesorbitan monolaurate). Bound receptor was incubated with 100 μl of the monoclonal anti-β1 antibody for 2 hr, then washed 3× with TBS/"TWEEN 20" (polyoxyethylenesorbitan monolaurate). […] The amount of bound second antibody was determined as described above.
The IC50 values for various RGD peptides were calculated by determining the concentration of a peptide that inhibited binding of Vn to αv β5 or αv β3 or of Fn to α5 β1, by 50%. […]

[3] = half-life of peptide in serum; conditions: in vivo
Description: Increased stability of a disulfide bonded peptide of the invention also can be conferred by incorporating a hydrophobic amino acid residue such as phenylalanine at position X1 or X8 or both X1 and X8 in an RGDNTic (SEQ ID NO: 31) or RGDDV (SEQ ID NO: 1) pharmacophore as disclosed herein. The presence of such a residue can stabilize the disulfide bond against enzymatic degradation (see Bauer et al., Life Sciences 31:1133-1140 (1982)). […] In addition, the half-life of a peptide in a subject can be determined, for example, by high performance liquid chromatography (HPLC) of serum samples collected from the subject at various times following administration of the peptide. One skilled in the art would know how to select appropriate elution buffers for HPLC based on the physico-chemical properties of a particular peptide.

[4] = cited from earlier work
osteoclasts = conditions: cited from earlier work
[5] = rabbit, in vivo; cited from earlier work

Compound: CC(C)[C@@H]1NC(=O)[C@H](CC(=O)O)NC(=O)[C@H](CC(=O)O)NC(=O)CNC(=O)[C@H](CCCNC(=N)N)NC(=O)CCSSC[C@@H](C(N)=O)NC1=O [compound 191] ([Mpa]RGDDVC-NH2; disulfide 1-7)
- PTH-induced rise in serum ionized calcium [1]: decreased the PTH-induced rise in serum ionized calcium in a dose responsive manner

Compound: CC(=O)N[C@H]1CSSC(C)(C)[C@@H](C(N)=O)NC(=O)[C@@H]2CCCN2C(=O)[C@H](CC(N)=O)NC(=O)[C@H](CC(=O)O)NC(=O)CNC(=O)[C@H](CCCNC(=N)N)NC1=O [compound 228] (Ac-CRGDNP[Pen]-NH2; disulfide 1-7)
- receptor selectivity (summary) (αv β3 integrin receptor; summary of assays): particularly receptor selective

Compound: C[C@@H]1NC(=O)[C@H](CCCNC(=N)N)NC(=O)CNC(=O)CC[C@@H](C(N)=O)NC(=O)[C@@H]2CCCN2C(=O)[C@H](CC(N)=O)NC(=O)[C@H](CC(=O)O)NC(=O)CNC(=O)[C@H](CCCNC(=N)N)NC1=O [compound 390] (GRARGDNPE-NH2; lactam N-9)
- receptor selectivity α5 β1 versus αv β5 [2]: more selective toward α5 β1 than toward αv β5

Compound: CC(=O)N[C@H]1CSSC[C@@H](C(N)=O)NC(=O)[C@@H]2Cc3ccccc3CN2C(=O)[C@H](CO)NC(=O)[C@H](CC(=O)O)NC(=O)CNC(=O)[C@H](CCCNC(=N)N)NC1=O [compound 812, Ac-CRGDS(Tic)C-NH2] (Ac-CRGDS[Tic]C-NH2; disulfide 1-7)
- activity (FIG. 2 assays) (αv β3 integrin receptor; minimal-element peptides): demonstrate activity
- potency (active at relatively low concentration) (αv β3 integrin receptor; summary of assays): particularly potent

Compound: CC(=O)N[C@@H]1C(=O)N[C@@H](Cc2ccccc2)C(=O)N[C@@H](C)C(=O)N[C@@H](CCCNC(=N)N)C(=O)NCC(=O)N[C@@H](CC(=O)O)C(=O)N[C@@H](CC(N)=O)C(=O)N2CCC[C@H]2C(=O)N[C@H](C(N)=O)CSSC1(C)C [peptide 214] (Ac-[Pen]FARGDNPC-NH2; disulfide 1-9)
- potency (active at relatively low concentration) (αv β3 integrin receptor; summary of assays): particularly potent

Compound: CC(=O)N[C@@H](Cc1ccccc1)C(=O)N[C@H]1CSSC[C@@H](C(N)=O)NC(=O)[C@H](Cc2ccccc2)NC(=O)[C@H]([C@@H](C)O)NC(=O)[C@H](CC(=O)O)NC(=O)CNC(=O)[C@H](CCCNC(=N)N)NC1=O [peptide 220] (Ac-FCRGDTFC-NH2; disulfide 2-8)
- half-life in serum [3]: relatively long half-life in serum

Compound: Echistatin
- bone resorption in vivo [4]: inhibits bone resorption
- binding to osteoclasts (osteoclasts): binds to osteoclasts in a nonselective manner
- bone resorption in vitro (osteoclasts; in vitro): inhibits bone resorption in vitro

Compound: G(Pen)GRGDSPCA
- neointimal hyperplasia [5]: inhibit neointimal hyperplasia
